Test results reported in ChEMBL document CHEMBL1201862, “PubChem BioAssay data set” (2004).
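All cell lines were grown in 96-well plates and treated with compound for 48 hours. Abbreviation: GI50, concentration required for 50% inhibition of growth.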 Active and inactive are the calls of the source. Cut-off read from the data, not from the text of the source: active = GI50 up to about 1.1 µM and inactive = higher.

Key:
Assay in all cases: DTP human tumour cell line panel, 48 h
[1] = system: UO-31
[2] = system: MOLT-4
[3] = system: HOP-92
[4] = system: RPMI-8226
[5] = system: OVCAR-4
[6] = system: SF-539
[7] = system: Malme-3M
[8] = system: HCT-15
[9] = system: HOP-62
[10] = system: HL-60
[11] = system: IGROV-1
[12] = system: OVCAR-8
[13] = system: T47D
[14] = system: MDA-N
[15] = system: HCC 2998
[16] = system: MDA-MB-231
[17] = system: SK-OV-3
[18] = system: SF-268
[19] = system: BT-549
[20] = system: TK-10
[21] = system: U-251
[22] = system: KM12
[23] = system: COLO 205
[24] = system: SR
[25] = system: K562
[26] = system: UACC-62
[27] = system: HT-29
[28] = system: 786-0
[29] = system: SK-MEL-28
[30] = system: LOX IMVI
[31] = system: Hs-578T
[32] = system: SN12C
[33] = system: MCF7
[34] = system: EKVX
[35] = system: UACC-257
[36] = system: CAKI-1
[37] = system: SNB-75
[38] = system: NCI-H460
[39] = system: M14
[40] = system: NCI/ADR-RES
[41] = system: DU-145
[42] = system: CCRF-CEM
[43] = system: NCI-H522
[44] = system: SNB-19
[45] = system: PC-3
[46] = system: OVCAR-3
[47] = system: A549
[48] = system: HCT-116
[49] = system: RXF 393
[50] = system: NCI-H23
[51] = system: SK-MEL-5
[52] = system: ACHN
[53] = system: SW-620
[54] = system: A498
[55] = system: NCI-H226
[56] = system: SF-295
[57] = system: MDA-MB-435
[58] = system: OVCAR-5

## Cc1ccccc1Nc1nc(NNC(=O)Cc2ccccc2)nc(NNC(=O)c2ccncc2)n1
[1]
  GI50: > 10 µM (inactive)
[2]
  GI50: > 10 µM (inactive)
[3]
  GI50: > 10 µM (inactive)
[4]
  GI50: > 10 µM (inactive)
[5]
  GI50: > 10 µM (inactive)
[6]
  GI50: > 10 µM (inactive)
[7]
  GI50: > 10 µM (inactive)
[8]
  GI50: > 10 µM
[9]
  GI50: > 10 µM (inactive)
[10]
  GI50: > 10 µM (inactive)
[11]
  GI50: > 10 µM (inactive)
[12]
  GI50: > 10 µM (inactive)
[13]
  GI50: > 10 µM (inactive)
[14]
  GI50: > 10 µM (inactive)
[15]
  GI50: > 10 µM (inactive)
[16]
  GI50: > 10 µM (inactive)
[17]
  GI50: > 10 µM (inactive)
[18]
  GI50: > 10 µM (inactive)
[19]
  GI50: > 10 µM (inactive)
[20]
  GI50: > 10 µM (inactive)
[21]
  GI50: > 10 µM (inactive)
[22]
  GI50: > 10 µM (inactive)
[23]
  GI50: > 10 µM (inactive)
[24]
  GI50: > 10 µM (inactive)
[25]
  GI50: > 10 µM (inactive)
[26]
  GI50: > 10 µM (inactive)
[27]
  GI50: > 10 µM (inactive)
[28]
  GI50: > 10 µM (inactive)
[29]
  GI50: > 10 µM (inactive)
[30]
  GI50: > 10 µM (inactive)
[31]
  GI50: > 10 µM (inactive)
[32]
  GI50: > 10 µM (inactive)
[33]
  GI50: > 10 µM (inactive)
[34]
  GI50: > 10 µM (inactive)
[35]
  GI50: > 10 µM (inactive)
[36]
  GI50: > 10 µM (inactive)
[37]
  GI50: > 10 µM (inactive)
[38]
  GI50: > 10 µM (inactive)
[39]
  GI50: > 10 µM (inactive)
[40]
  GI50: > 10 µM (inactive)
[41]
  GI50: > 10 µM (inactive)
[42]
  GI50: > 10 µM (inactive)

## COC(=O)C(Cc1cn(C(C)=O)c2ccccc12)P(=O)(OC)OC (stereo not given)
[1]
  GI50: 72.9 µM (inactive)
[3]
  GI50: > 100 µM (inactive)
[4]
  GI50: > 100 µM (inactive)
[5]
  GI50: > 100 µM (inactive)
[6]
  GI50: > 100 µM (inactive)
[8]
  GI50: > 100 µM
[43]
  GI50: > 100 µM (inactive)
[44]
  GI50: > 100 µM (inactive)
[10]
  GI50: > 100 µM (inactive)
[11]
  GI50: > 100 µM (inactive)
[12]
  GI50: > 100 µM (inactive)
[13]
  GI50: > 100 µM (inactive)
[45]
  GI50: > 100 µM (inactive)
[46]
  GI50: > 100 µM (inactive)
[14]
  GI50: > 100 µM (inactive)
[47]
  GI50: > 100 µM (inactive)
[15]
  GI50: > 100 µM (inactive)
[48]
  GI50: > 100 µM (inactive)
[16]
  GI50: > 100 µM (inactive)
[49]
  GI50: > 100 µM (inactive)
[18]
  GI50: > 100 µM (inactive)
[19]
  GI50: > 100 µM (inactive)
[20]
  GI50: > 100 µM (inactive)
[21]
  GI50: > 100 µM (inactive)
[22]
  GI50: > 100 µM (inactive)
[50]
  GI50: > 100 µM (inactive)
[51]
  GI50: > 100 µM (inactive)
[23]
  GI50: > 100 µM (inactive)
[24]
  GI50: > 100 µM (inactive)
[52]
  GI50: > 100 µM (inactive)
[53]
  GI50: > 100 µM (inactive)
[25]
  GI50: > 100 µM (inactive)
[26]
  GI50: > 100 µM (inactive)
[54]
  GI50: > 100 µM (inactive)
[55]
  GI50: > 100 µM (inactive)
[56]
  GI50: > 100 µM (inactive)
[27]
  GI50: > 100 µM (inactive)
[29]
  GI50: > 100 µM (inactive)
[32]
  GI50: > 100 µM (inactive)
[33]
  GI50: 20.7 µM (inactive)
[35]
  GI50: > 100 µM (inactive)
[57]
  GI50: > 100 µM (inactive)
[36]
  GI50: > 100 µM (inactive)
[37]
  GI50: 60.3 µM (inactive)
[38]
  GI50: > 100 µM (inactive)
[39]
  GI50: > 100 µM (inactive)
[40]
  GI50: > 100 µM (inactive)
[41]
  GI50: > 100 µM (inactive)
[42]
  GI50: > 100 µM (inactive)
[58]
  GI50: 95.3 µM (inactive)

## Cc1ccc(C)n2c1nc1ccccc12
[1]
  GI50: 91.4 µM (inactive)
[2]
  GI50: 62.4 µM (inactive)
[3]
  GI50: > 100 µM (inactive)
[4]
  GI50: > 100 µM (inactive)
[6]
  GI50: > 100 µM (inactive)
[7]
  GI50: > 100 µM (inactive)
[8]
  GI50: > 100 µM
[44]
  GI50: > 100 µM (inactive)
[9]
  GI50: 85.5 µM (inactive)
[10]
  GI50: > 100 µM (inactive)
[11]
  GI50: > 100 µM (inactive)
[12]
  GI50: > 100 µM (inactive)
[13]
  GI50: > 100 µM (inactive)
[45]
  GI50: > 100 µM (inactive)
[46]
  GI50: > 100 µM (inactive)
[14]
  GI50: > 100 µM (inactive)
[47]
  GI50: 33 µM (inactive)
[15]
  GI50: > 100 µM (inactive)
[48]
  GI50: > 10 µM (inactive)
[17]
  GI50: > 100 µM (inactive)
[49]
  GI50: 96.4 µM (inactive)
[18]
  GI50: > 100 µM (inactive)
[19]
  GI50: > 100 µM (inactive)
[20]
  GI50: > 100 µM (inactive)
[21]
  GI50: > 100 µM (inactive)
[22]
  GI50: > 100 µM (inactive)
[50]
  GI50: > 100 µM (inactive)
[51]
  GI50: 82.8 µM (inactive)
[23]
  GI50: > 100 µM (inactive)
[24]
  GI50: > 100 µM (inactive)
[52]
  GI50: > 100 µM (inactive)
[53]
  GI50: > 100 µM (inactive)
[25]
  GI50: > 100 µM (inactive)
[26]
  GI50: 80.5 µM (inactive)
[54]
  GI50: 1.46 µM (inactive)
[55]
  GI50: > 100 µM (inactive)
[56]
  GI50: > 100 µM (inactive)
[27]
  GI50: 31.9 µM (inactive)
[28]
  GI50: > 100 µM (inactive)
[29]
  GI50: > 100 µM (inactive)
[31]
  GI50: > 100 µM (inactive)
[32]
  GI50: > 100 µM (inactive)
[33]
  GI50: > 100 µM (inactive)
[34]
  GI50: 62.7 µM (inactive)
[35]
  GI50: > 100 µM (inactive)
[57]
  GI50: > 100 µM (inactive)
[37]
  GI50: 24.9 µM (inactive)
[38]
  GI50: 25.5 µM (inactive)
[39]
  GI50: > 100 µM (inactive)
[40]
  GI50: > 100 µM (inactive)
[41]
  GI50: > 100 µM (inactive)
[42]
  GI50: > 100 µM (inactive)
[58]
  GI50: > 100 µM (inactive)
